Laboratory results taken from patent publication US5691368A, “Substituted oxazolidine calpain and/or cathepsin B inhibitors” (Hoechst Marion Roussel, Inc., priority 1995, dated 1997).
Where “and” joins values, the source holds several entries; their conditions need not be identical. Equal entries are not always repeated. Where two headings read alike, the source gives them in different places. Each block holds one compound with its values, some of them ahead of it. Where a SMILES comes first, the peptide text is derived from it. The star is where a group is joined. Cbz = O=C(OCc1ccccc1)*

What was measured:
calpain [1] = conditions: cited from earlier work
rats = conditions: cited from earlier work
calpain [2] = conditions: broken membrane preparations; cited from earlier work
[3] = test system: proteolytic response to post-decapitation ischemia; conditions: cited from earlier work
[4] = target: Muscle and erythrocyte calpain; test: In Vitro Assay of Calpain (fluorometric, t-Boc-Val-Leu-Lys-7-amido-4-methyl-coumarin substrate); assay type: biochemical; conditions: In Vitro Calpain Inhibition
Experimental: In Vitro Assay of Calpain in the Prescence of Calpain Inhibitors
Muscle and erythrocyte calpain were assayed by a fluorometric procedure using t-Boc-Val-Leu-Lys-7-amido-4-methyl-coumarin as the substrate, Sasaki et al., J. Biol. Chem. 259, 12489-12494 (1984). The enzyme calpain is commercially available and may be purchased from Sigma. The assay buffer, pH, assay techniques and calculation of the inhibitory constant (Ki) are similar to those described by Mehdi et al., Biochem. Biophys. Res. Commun. 157, 1117-1123 (1988).

[5] = test system: male spontaneously hypertensive rats; test: Neuroprotection in vivo, focal cerebral ischemia by permanent tandem occlusion of right middle cerebral artery and right common carotid artery; parameters: species or system rat (spontaneously hypertensive)
Experimental: Neuroprotection In Vivo With MDL 104,903 In a Model of Focal Cerebral Ischemia
For example, twelve male spontaneously hypertensive rats were divided into two groups: a vehicle-treated group and a calpain inhibitor-treated groups (MDL 104,903; 4×30 mg/kg cumulative doses). Ischemia was induced by permanent tandem occlusion of the right middle cerebral artery and right common carotid artery. Animals were killed 24 hours after surgery, and quantitative measurements of infarction volumes were performed using standard histological techniques and quantitative image analysis.

[6] = individual animal, inhibitor-treated group, 4×30 mg/kg I.V., 24 hours after surgery, 30 mg/kg

Compound: CC(C)[C@H](NC(=O)OCc1ccccc1)C(=O)N[C@H](C=O)Cc1ccccc1 [Cbz-Val-Phe-H] (Cbz-Val-Phe-aldehyde)
cell penetration (calpain [1]; inhibitor of calpain): cell-penetrating
Ki for calpain (calpain [1]; intact cell systems): low
reduction of infarction, edema, and calcium-activated proteolysis (rats; intravenous injections, cumulative doses of 30 mg/kg or 60 mg/kg): effective in reducing infarction, edema, and calcium-activated proteolysis
volumes of cerebral infarction (rats; rats, versus saline-treated or vehicle-treated control animals): significantly smaller
Ki for calpain (calpain [2]): low
proteolytic response to post-decapitation ischemia [3]: reduced

Ki [4]: 1.3 µM
Compound: CCCC(=O)O[C@@H]1OCN(C(=O)[C@@H](NC(=O)OCc2ccccc2)C(C)C)[C@H]1Cc1ccccc1 [MDL 103,821, [4S-[3(R*),4α,5β]]-[1-[[5-butyryloxy)-4-(phenylmethyl)-3-oxazolidinyl]carbonyl]-2-methylpropyl]-carbamic acid, phenylmethyl ester]

Ki [4]: 0.3 µM
Compound: CCCCC(CC)C(=O)O[C@@H]1OCN(C(=O)[C@@H](NC(=O)OCc2ccccc2)C(C)C)[C@H]1Cc1ccccc1 (stereo partly drawn) [MDL 104,092, [4S-[3(R*),4α,5β]]-[1-[[5-(2-ethylhexanoyl-oxy)-4-(phenylmethyl)-3-oxazolidinyl]carbonyl]-2-methylpropyl]-carbamic acid, phenylmethyl ester]

Ki [4]: 1.45 µM
Compound: CC(=O)O[C@@H]1OCN(C(=O)[C@@H](NC(=O)OCc2ccccc2)C(C)C)[C@H]1Cc1ccccc1 [MDL 104,860, [4S-[3(R*),4α,5β]]-[1-[[5-(acetyloxy)-4-(phenylmethyl)-3-oxazolidinyl]carbonyl]-2-methylpropyl]carbamic acid, phenylmethyl ester]

Ki [4]: 0.033 µM
Compound: CC(C)[C@H](NC(=O)OCc1ccccc1)C(=O)N1CO[C@@H](O)[C@@H]1Cc1ccccc1 [MDL 104,903, [4S-[3(R*),4α,5β]]-[1-[[5-hydroxy-4-(phenylmethyl)-3-oxazolidinyl]carbonyl]-2-methylpropyl]-carbamic acid, phenylmethyl ester]
reduction in infarct volume ([5]; 4×30 mg/kg I.V. doses via femoral vein at 2 hour intervals beginning 5 min. after initiation of ischemia, 24 hours after surgery): 20.5%
% of Reduction (Percentage of Infarct Reduction) ([5]; comparison of mean values with vehicle group, 4×30 mg/kg I.V.): 20.24%
Brain Volume ([5]; individual animal, inhibitor-treated group, 4×30 mg/kg I.V. at 2 hour intervals from 5 min after ischemia, 24 hours after surgery, 30 mg/kg): 1307.52 mm^3 and 1309.36 mm^3 and 1257.24 mm^3 and 1313.62 mm^3 and 1333.44 mm^3 and 1326.46 mm^3
Infarct Vol. v. Brain Vol. [5, 6]: 12.61% and 14.14% and 13.59% and 10.07% and 10.93%
Infarct Volume [5, 6]: 164.94 mm^3 and 185.16 mm^3 and 170.84 mm^3 and 178.58 mm^3 and 134.28 mm^3 and 144.92 mm^3
Infarct Vol. v. Brain Vol., mean ([5]; mean of inhibitor-treated group (animals 7-12), 4×30 mg/kg I.V., vehicle mean 15.66): 12.49%
Infarct Volume, mean ([5]; mean of inhibitor-treated group (animals 7-12), 4×30 mg/kg I.V., vehicle mean 205.14): 163.12 mm^3
Brain Volume, mean ([5]; mean of inhibitor-treated group (animals 7-12), 4×30 mg/kg I.V., vehicle mean 1310.15): 1307.94 mm^3

Ki [4]: 1.1 µM
Compound: COc1ccc(CC(=O)O[C@@H]2OCN(C(=O)[C@@H](NC(=O)OCc3ccccc3)C(C)C)[C@H]2Cc2ccccc2)cc1 [MDL 105,236, [4S-[3(R*),4α,5β]]-[1-[[5-(4-methoxyphenyl-acetyloxy)--4-(phenylmethyl)-3-oxazolidinyl]carbonyl]-2-methylpropyl-1]-carbamic acid, phenylmethyl ester]

Ki [4]: 2.1 µM
Compound: CC(C)[C@@H](C(=O)N1CO[C@@H](O)[C@@H]1Cc1ccccc1)N(C)C(=O)OCc1ccccc1 [MDL 105,423, [4S-[3(R*),4α,5β]]-[1-[[5-hydroxy-4-(phenylmethyl-3-oxazolidinyl]carbonyl]-2-methylpropyl]methyl-carbamic acid, phenylmethyl ester]

Ki [4]: 0.7 µM
Compound: CCOC(=O)CCC(=O)O[C@@H]1OCN(C(=O)[C@@H](NC(=O)OCc2ccccc2)C(C)C)[C@H]1Cc1ccccc1 [MDL 105,608, [4S-[3(R*),4α,5β]]-[1-[[5-(ethylsuccinyloxy)-4-(phenylmethyl)-3-oxazolidinyl]carbonyl]-2-methylpropyl]-carbamic acid, phenylmethyl ester]

Ki [4]: 2 µM
Compound: CC(C)[C@H](NC(=O)OCc1ccccc1)C(=O)N1CO[C@@H](OC(=O)N2CCOCC2)[C@@H]1Cc1ccccc1 [MDL 105,803, [4S-[3(R*),4α,5β]]-3-[3-methyl-1-oxo-2-[[(phenylmethoxy)carbonyl]amino]butyl]-4-(phenylmethyl)-5-oxazolidinyl ester, 4-morpholinecarboxylic acid]

Ki [4]: 1.2 µM
Compound: [4S-[3(R*),4α,5β]]-[1-[[5-(propionyloxy)-4-(phenylmethyl)-3-oxazolidinyl]carbonyl]-2-methylpropyl]-carbamic acid, phenylmethyl ester [MDL 105,387]
